Data on four molecules can be found in article PMC5228037, “Discovery and Mechanistic Characterization of Selective Inhibitors of H2S-producing Enzyme: 3-Mercaptopyruvate Sulfurtransferase (3MST) Targeting Active-site Cysteine Persulfide” (Scientific Reports, 2017).

The target of test [1] is T1, GST-fused m3MST (GST-3MST) (Mus musculus, UniProt Q99J99).
T1 construct: made in house; host or cells: E. coli BL21
T1 sequence (Q99J99 1-297): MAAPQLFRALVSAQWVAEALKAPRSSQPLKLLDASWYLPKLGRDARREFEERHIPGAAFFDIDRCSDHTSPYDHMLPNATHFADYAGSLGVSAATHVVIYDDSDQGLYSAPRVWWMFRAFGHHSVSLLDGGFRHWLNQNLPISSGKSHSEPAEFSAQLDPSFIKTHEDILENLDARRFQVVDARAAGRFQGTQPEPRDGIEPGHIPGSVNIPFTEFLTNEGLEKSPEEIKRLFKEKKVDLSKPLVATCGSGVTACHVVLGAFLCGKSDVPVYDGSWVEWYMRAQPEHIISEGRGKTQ
Briefly: 3MST inhibitor screening with H2S fluorescent probe HSip-1 (confirmation test, titration test). In kind it is biochemical. The settings on record: HSip-1 fluorescence, room temperature 3 hr; for inhibition at 10 µM: 10 μM compound, 50 μM 3MP, 40 μM DTT, mean±S.D. n = 4; for IC50: 0.25, 1, 3, 10, 30 μM compound, 3MP and DTT, read-out: IC50 of 3MST inhibition (titration test).

Test [2] can be described thus: Reactivity test toward H2S (3rd screening, cysteine-activated H2S donor). The note with it: 40 μM H2S donor, 1 mM L-cysteine, 37 °C 60 min, mean±S.D. n = 4. Here is the method: Reactivity of the hit compounds toward H2S was next examined. The final concentration of the compounds was 10 or 30 μM. The assay protocol was as follows. Compounds were diluted with HSip-1 and cysteine-activated H2S donor[22] solution to 20 or 60 μM solution (15.4% DMSO) with a Multi-Drop and a pipette. Next, 2 mM L-cysteine solution (10 μL, final concentration: 1 mM L-cysteine) was dispensed into the plates (total volume was 20 μL, DMSO 7.7%), and the plates were incubated at 37 °C for 1 hr. The fluorescence of HSip-1 was measured (λex = 490 nm, λem = 510 nm) with a microplate reader. Background control wells (i.e., no addition wells instead of addition of the cysteine-activated H2S donor, n = 16) were also prepared for all plates.
Supplementary Table S2. Inhibition (%) of fluorescence increase caused by H2S in the 3rd […]
Compound 10 µM Compound 30 µM Compound 10 µM Compound 30 µM
All data are presented as the mean±S.D. (n = 4). Conditions: Mixtures of 1 μM HSip-1, 10 or 30 μM test compound, 40 μM H2S donor, 1 mM ʟ-cysteine, and 7.7% DMSO (v/v) were incubated at 37 °C for 60 min. The control with DMSO alone instead of DMSO solution of test compound was taken as 0% inhibition, and the sample without H2S donor was taken as 100% inhibition. […]
directly react with H2S: For this assay, we synthesized a reported small-molecular H2S donorS2 that produces H2S by reacting with cysteine. Each compound (10 or 30 μM) was dissolved in a solution (30 mM HEPES buffer (pH 7.4)) containing 1 μM HSip-1, 40 μM H2S donor, 1 mM ʟ-cysteine and 7.7% (v/v) DMSO as a cosolvent, and the solution was incubated at 37 °C for 60 min. Then, the fluorescence intensities were measured to evaluate the amount of H2S in the solution […]

`NC(=O)c1ccsc1NC(=O)CSc1nc2ccccc2c(=O)[nH]1` [compound 1]: in test [1], the inhibition at 10 µM was 102.8 ± 0.2% and the IC50 was found to be 1.7 µM. Besides, the “Inhibition (%) of fluorescence increase caused by H2S in the 3rd screening” value in test [2] (10 μM compound) is 0.2±3.5%. Further, in test [2] (30 μM compound), the “Inhibition (%) of fluorescence increase caused by H2S in the 3rd screening” value is reported as 1.0±2.4%.
For `Cc1sc2nc(SCC(=O)c3ccc(O)cc3O)[nH]c(=O)c2c1C` [compound 2] the same measures were 81.7 ± 2.5%, 6.3 µM, 6.5±1.8% and 19.6±15.3%.
In the case of `O=C(O)c1cccc(NS(=O)(=O)c2ccccc2)c1` [compound 5], in test [1], the inhibition at 10 µM was found to be 95.5 ± 3.4% and the IC50 was 5.7 µM. For the same molecule, the “Inhibition (%) of fluorescence increase caused by H2S in the 3rd screening” value in test [2] (10 μM compound) came to 2.5±4.5%. The “Inhibition (%) of fluorescence increase caused by H2S in the 3rd screening” value in test [2] (30 μM compound) was -1.2±16.3%.
For `Cc1cc(=O)[nH]c(SCC(=O)c2cccc3ccccc23)n1` [compound 3], in that order: 102 ± 2.9%, 2.7 µM, -3.2±5.0% and -3.5±3.9%.

The inhibition is the relative decrease from the control value, in per cent.
